Some test systems named below: XF 498 CNS; M19-MEL melanoma; DMS 114 small cell lung; KM20L2 colon; RXF-631 renal; LXFL 529 NSCLC; DMS 273 small cell lung; HOP-18 NSCLC; MDA-N; P388/ADR leukemia; P388 leukemia; SN12K1 renal.
Holding throughout (assay): NCI tumour cell line growth inhibition, 48 h

From PubChem BioAssay (NCI) come the findings set out here.

Where “and” joins values, the source holds several entries; their conditions need not be identical. Identical values can stand only once.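 Each compound was tested at five concentrations against cells in 96-well plates for 48 hours. GI50: concentration for 50% inhibition of growth. At the TGI there is no net growth.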 Where only a bound is given, the exact number is not on record here.

Take `Cc1c(C(Cc2ccccc2N(C)C(=O)/C=C\C(=O)O)c2c[nH]c3ccccc23)c2ccccc2n1C` (stereo not drawn): the TGI in the assay with XF 498 CNS turned out to be 36.9 µM; in the assay with M19-MEL melanoma it was 30.5 µM; with DMS 114 small cell lung it was 27.5 µM; with KM20L2 colon, 32.7 µM; with RXF-631 renal, 27.9 µM; in the assay on LXFL 529 NSCLC, 26 µM. Also, the TGI in the assay with DMS 273 small cell lung came to 32.7 µM.

As to `N#CC(C(=O)CCCC(=O)Nc1ccccc1[N+](=O)[O-])c1c(Cl)cccc1Cl` (stereo not drawn), the TGI in the assay on XF 498 CNS, in the assay on HOP-18 NSCLC, in the assay with M19-MEL melanoma, with DMS 114 small cell lung, with KM20L2 colon and in the assay with RXF-631 renal was more than 100 µM throughout. In addition, the TGI in the assay on LXFL 529 NSCLC and with DMS 273 small cell lung was more than 100 µM in each case.

`CC(=O)OC(C)(C)C1CC[C@]2(C)/C=C/C(C)C[C@@H](O)/C=C(\C)CC(O)C12` (stereo partly drawn): the TGI in the assay with HOP-18 NSCLC, with M19-MEL melanoma, in the assay on DMS 114 small cell lung, with KM20L2 colon, with RXF-631 renal and in the assay with LXFL 529 NSCLC was more than 100 µM in each case. Further, the TGI in the assay with DMS 273 small cell lung was more than 100 µM.

Turning to `Cc1cc(N(CCC#N)CCC#N)ccc1/C=C(\NC(=O)/C=C/c1ccccc1)C(=O)N=[N+]=[N-]`, the TGI in the assay on XF 498 CNS was 69.9 µM; with M19-MEL melanoma, more than 100 µM; in the assay on DMS 114 small cell lung, more than 100 µM; in the assay with KM20L2 colon, more than 100 µM; in the assay on LXFL 529 NSCLC, more than 100 µM; with DMS 273 small cell lung, more than 100 µM.

As for `CC(=O)N1C/C(=C\c2ccccc2)C(=O)/C(=C/c2ccccc2)C1`, the TGI in the assay with XF 498 CNS stood at 49.3 µM; in the assay on HOP-18 NSCLC, 32.9 µM; in the assay with M19-MEL melanoma, 10.7 µM; in the assay on KM20L2 colon, 39.5 µM; in the assay with LXFL 529 NSCLC, 21.6 µM; in the assay on DMS 273 small cell lung it was 12.1 µM.

On to `O=C(O)/C=C/c1ccc(O)c(O)c1`, for which the TGI in the assay on HOP-18 NSCLC, in the assay with M19-MEL melanoma, with DMS 114 small cell lung, in the assay on KM20L2 colon, with RXF-631 renal and in the assay with LXFL 529 NSCLC was more than 100 µM in each case. This compound returned a TGI with DMS 273 small cell lung of more than 100 µM.

Turning to `COc1ccc(C2COc3c(ccc(OC)c3OC)C2=O)cc1OC` (stereo not drawn), the TGI with XF 498 CNS, in the assay on HOP-18 NSCLC, in the assay with M19-MEL melanoma, in the assay on DMS 114 small cell lung, in the assay on KM20L2 colon and with LXFL 529 NSCLC was more than 100 µM in each case.

Regarding `CC[C@@]1(OP(=O)(O)O)C(=O)OCc2c1cc1n(c2=O)Cc2cc3ccccc3nc2-1`, the GI50 in the assay on XF 498 CNS is 1.88 µM; in the assay with HOP-18 NSCLC, 0.408 µM; with M19-MEL melanoma, 0.25 µM; in the assay with DMS 114 small cell lung it was 0.0678 µM; in the assay with KM20L2 colon, 0.458 µM. The TGI in the assay on XF 498 CNS is 2.21 µM and 9.34 µM; in the assay with HOP-18 NSCLC, 44.4 µM; with M19-MEL melanoma, 6.47 µM and 2.05 µM; with DMS 114 small cell lung it was 0.509 µM and 3.37 µM; in the assay with LXFL 529 NSCLC, 70.8 µM; with DMS 273 small cell lung, 0.194 µM. Also, the TGI in the assay on MDA-N was 4.59 µM.

For the compound `Cc1ccc(S(=O)c2ccccc2[N+](=O)[O-])cc1` (stereo not drawn), the TGI in the assay with M19-MEL melanoma, with DMS 114 small cell lung, in the assay with RXF-631 renal and in the assay with DMS 273 small cell lung was more than 100 µM in each case.

Turning to `NC1=C(O)c2cccc3cccc(c23)C1=O`, the TGI in the assay on HOP-18 NSCLC, with M19-MEL melanoma, in the assay on DMS 114 small cell lung, in the assay with KM20L2 colon, in the assay on RXF-631 renal and in the assay on LXFL 529 NSCLC was more than 100 µM throughout. This compound yielded a TGI in the assay on DMS 273 small cell lung of more than 100 µM.

Consider `CN(C)CC1CC/C(=C\c2ccc(Cl)c(Cl)c2)C1=O` (stereo not drawn), for which the TGI is more than 65.4 µM with XF 498 CNS; more than 100 µM with HOP-18 NSCLC; more than 51.2 µM in the assay with M19-MEL melanoma; more than 72.7 µM in the assay with DMS 114 small cell lung; more than 50.2 µM in the assay on KM20L2 colon; 27 µM in the assay with LXFL 529 NSCLC. The TGI in the assay on DMS 273 small cell lung is more than 51.9 µM.

In the assay on MDA-N, `C[N+]1([O-])C2CCC1CC(OC(=O)C(CO)c1ccccc1)C2` (stereo not drawn) yielded a TGI of more than 100 µM.

For the compound `COc1ccc(C(=O)C(C(=O)CCC(=O)Nc2ccc(Cl)c(Cl)c2)c2ccc(OC)cc2)cc1` (stereo not drawn), the TGI in the assay with XF 498 CNS, in the assay on HOP-18 NSCLC, in the assay with M19-MEL melanoma, in the assay with DMS 114 small cell lung, with KM20L2 colon and in the assay on RXF-631 renal was more than 100 µM throughout. The TGI with LXFL 529 NSCLC and in the assay with DMS 273 small cell lung was more than 100 µM each time.

Regarding `CS(=O)(=O)OCCN(CCOS(C)(=O)=O)c1ccc(C=Nc2ccc(-c3csc(COc4ccccc4)n3)cc2)cc1`, the TGI with XF 498 CNS is 6.85 µM; with HOP-18 NSCLC, 19.2 µM; in the assay with M19-MEL melanoma, 36 µM; with DMS 114 small cell lung, 23.4 µM; in the assay with KM20L2 colon, 14.7 µM; in the assay on LXFL 529 NSCLC it was 25.3 µM. The TGI stood at 14.5 µM in the assay with DMS 273 small cell lung and 31 µM with MDA-N.

In the assay with MDA-N, `Cc1ccc(N)c(S)c1` registered a TGI of 28.2 µM.

`O=c1c2ccccc2nc(-c2cccc([N+](=O)[O-])c2)n1O` returned a TGI with MDA-N of more than 100 µM.

As to `C=CC1(C)CCC2C(=CCC3C2(C)CC(O)C(O)C3(C)COC2OC(CO)C(O)C(O)C2O)C1` (stereo not drawn), the TGI in the assay with MDA-N is more than 100 µM.

Regarding `Cn1cc(C2NC(=O)c3ccccc3N2)c2ccccc21` (stereo not drawn), in the assay on MDA-N, the TGI turned out to be 0.591 µM.

On to `C/C(CN1C(=O)c2ccccc2C1=O)=N\NS(=O)(=O)c1ccc2ccccc2c1`, for which the TGI in the assay with HOP-18 NSCLC, with M19-MEL melanoma, with DMS 114 small cell lung, with KM20L2 colon, in the assay on LXFL 529 NSCLC and with DMS 273 small cell lung was more than 100 µM in each case.

As to `O=C(/C=C/c1ccccc1)NC1C=Nc2ccc([N+](=O)[O-])cc2NC1=O` (stereo not drawn), the TGI in the assay on XF 498 CNS, with M19-MEL melanoma, with DMS 114 small cell lung, with KM20L2 colon, with LXFL 529 NSCLC and with DMS 273 small cell lung was more than 100 µM each time.

On to `CN(C)CCC(N)(P(=O)([O-])[O-])P(=O)([O-])[O-].N.N.[Pt+2]`, for which the GI50 in the assay on HOP-18 NSCLC, in the assay with KM20L2 colon, in the assay with LXFL 529 NSCLC and with DMS 273 small cell lung was more than 100 µM each time. The TGI in the assay on HOP-18 NSCLC, with KM20L2 colon, in the assay on LXFL 529 NSCLC and in the assay on DMS 273 small cell lung was more than 100 µM each time.

Consider `CCN(CC)CC(=O)NC1c2ccccc2Oc2ccccc21`, for which the TGI in the assay on XF 498 CNS, in the assay with M19-MEL melanoma, with DMS 114 small cell lung, with KM20L2 colon, with LXFL 529 NSCLC and in the assay on DMS 273 small cell lung was more than 100 µM throughout.

In turn, `O=C(O)/C=C\C(=O)Nc1ccc2c(c1)-c1ccccc1C2` registered a TGI with MDA-N of more than 100 µM.

On to `O=C1C2C3CC4C5C3C1C5C1(SCCS1)C42` (stereo not drawn), for which the TGI with HOP-18 NSCLC, with M19-MEL melanoma, in the assay on DMS 114 small cell lung, in the assay with KM20L2 colon, in the assay on LXFL 529 NSCLC and in the assay with DMS 273 small cell lung was more than 100 µM throughout.

In the case of `COC(=O)C(=O)C(C#N)c1nc2ccccc2s1` (stereo not drawn), the TGI in the assay with XF 498 CNS, in the assay with M19-MEL melanoma, in the assay with DMS 114 small cell lung, with KM20L2 colon, with RXF-631 renal and with LXFL 529 NSCLC was more than 100 µM in each case. This compound showed a TGI in the assay on DMS 273 small cell lung of more than 100 µM.

Take `O=P1(NCCCl)OCCCN1CCCl` (stereo not drawn): the TGI was 436 µM in the assay with XF 498 CNS; 315 µM in the assay on P388/ADR leukemia; 124 µM in the assay with HOP-18 NSCLC; 440 µM with M19-MEL melanoma; 438 µM with DMS 114 small cell lung; 434 µM with KM20L2 colon. Further, the TGI is more than 500 µM in the assay with LXFL 529 NSCLC; 410 µM with DMS 273 small cell lung; more than 500 µM with MDA-N; 293 µM with P388 leukemia; 430 µM with SN12K1 renal.

With `O=C([CH-]C(=O)c1ccccc1)c1ccccc1.O=C([CH-]C(=O)c1ccccc1)c1ccccc1.O=C([CH-]C(=O)c1ccccc1)c1ccccc1.[Ga+3]`, the GI50 in the assay with HOP-18 NSCLC was 39.7 µM; in the assay on KM20L2 colon, 59.2 µM. Besides, the TGI in the assay on HOP-18 NSCLC and in the assay with KM20L2 colon was more than 100 µM each time.

As for `CC(=O)OCC1C(=O)OCC1C(=O)N1Cc2cc3ccccc3nc2C1` (stereo not drawn), the TGI worked out at 4.51 µM with XF 498 CNS; 10.2 µM in the assay on HOP-18 NSCLC; 21.2 µM in the assay on M19-MEL melanoma; 29.8 µM in the assay on DMS 114 small cell lung; 11 µM in the assay on KM20L2 colon; 5.22 µM with LXFL 529 NSCLC. The TGI with DMS 273 small cell lung is 17.8 µM; in the assay on MDA-N it was 13.1 µM.

Regarding `COc1ccc2c(c1)[C@@H](NC(C)=O)CCc1cc(OC)c(OC)c(OC)c1-2`, the TGI with XF 498 CNS was 16.2 µM; in the assay on HOP-18 NSCLC, more than 100 µM; in the assay on M19-MEL melanoma, more than 100 µM; in the assay on DMS 114 small cell lung, 0.366 µM; with LXFL 529 NSCLC, more than 100 µM; in the assay with DMS 273 small cell lung, more than 100 µM. Further, in the assay on MDA-N, the TGI was less than 0.0204 µM.

In the case of `CC(=O)C1(O)CC2(c3ccccc3)C(=O)C1(c1ccccc1)C(c1ccccc1)=C2c1ccccc1` (stereo not drawn), the TGI in the assay with XF 498 CNS, in the assay on M19-MEL melanoma, with DMS 114 small cell lung, with KM20L2 colon, with RXF-631 renal and in the assay on LXFL 529 NSCLC was more than 100 µM throughout. The compound also gave a TGI in the assay on DMS 273 small cell lung of more than 100 µM.

Regarding `COc1nc(NC2OC(COC(C)=O)C(OC(C)=O)C(OC(C)=O)C2OC(C)=O)c(N=CC=Nc2c(NC3OC(COC(C)=O)C(OC(C)=O)C(OC(C)=O)C3OC(C)=O)nc(OC)[nH]c2=O)c(=O)[nH]1` (stereo not drawn), the TGI in the assay on HOP-18 NSCLC, in the assay on M19-MEL melanoma, in the assay with DMS 114 small cell lung, in the assay on KM20L2 colon and in the assay on LXFL 529 NSCLC was more than 100 µM in each case.

`O=C(CCc1nnc2s/c(=C\c3ccc([N+](=O)[O-])cc3)c(=O)n12)Nc1ccc(Cl)c(Cl)c1`: the TGI in the assay on XF 498 CNS is 45.5 µM; in the assay with M19-MEL melanoma, more than 100 µM; in the assay on DMS 114 small cell lung it was 33.4 µM; with KM20L2 colon it was more than 100 µM; with RXF-631 renal, more than 100 µM; with LXFL 529 NSCLC, 26.2 µM. Further, the TGI in the assay with DMS 273 small cell lung was 54.4 µM.

The compound `C=C(CO)C(=O)OC1CC(=C)C2CC(O)C(C)C2C2OC(=O)C(=C)C12` (stereo not drawn) gave a TGI in the assay with MDA-N of 38 µM.
